Measurements: patent US8598368B2, “Stable neutral nitric oxide source” (priority 2007, dated 2013)

Legend:
[1] = Stability of the Diels-Alder adduct and its hydrogenated derivative (observation); type: physicochemical; settings: white solid precipitated at 0° C., then warmed
Description: At 0° C., a white solid, presumed to be 2, precipitated from solution. […] To confirm the identity of 2, hydrogenation produced stable compound 3 as described below.

[2] = Treatment of patient with chronic hypertension; type: in vivo; settings: intravenous, blood concentration of 10 nanomolar
From the text: A person being treated with sodium iodide for hyperthyroidism has chronic hypertension (BP of 165/90). The patient is given 4 intravenously to maintain a blood concentration of 10 nanomolar. Blood pressure reduces to 140/85.
Treatment of patient with chronic hypertension with 6 The patient who has chronic hypertension (BP of 165/90) is given 6 intravenously to maintain a blood concentration of 10 nanomolar. Blood pressure reduces to 140/85.

| Structure (SMILES) | Stability (retro Diels Alder reaction) [1] | further results |
| --- | --- | --- |
| N#CC1(N2OC3C=CC2C3)CCCCC1 (stereo not shown) [Compound 2] | On warming, the solid turned blue, suggesting retro Diels Alder reaction | – |
| N#CC1(N2OC3CCC2C3)CCCCC1 (stereo not shown) [Compound 3, N-(−1-cyanocyclohexyl)bicyclo[2.2.1]3,4,5,6-tetrahydro-1,2-oxazine] | stable | – |
| N#CC1(N2OC3CC2C(Br)C3Br)CCCCC1 (stereo not shown) [Compound 4, N-(1-cyanocyclohexyl)bicyclo[2.2.1]4,5-dibromo-3,6-dihydro-1,2-oxazine] | – | Blood pressure ([2]; person treated with sodium iodide, chronic hypertension (BP of 165/90)): 140/85 |
| N#CC1(N2OC3CC2C(S)C3O)CCCCC1 (stereo not shown) [Compound 6, N-(1-Cyanocyclohexyl)bicyclo[2.2.1]4-thio-5-hydroxy-3,6-dihydro-1,2-oxazine] | – | Blood pressure ([2]; patient with chronic hypertension (BP of 165/90)): 140/85 |
